Data on three molecules can be found in US7667054B2, “Cytotoxic agents comprising new taxanes” (priority 2004, dated 2010).

The test system of assay [1] is MCF7. Description: activity of the taxoids on MCF7 (procedure of Riou, Naudin and Lavelle). To be noted: Homo sapiens, MCF7, read-out: MCF7. The class given is cell-based. The protocol: (§1) The activity of the compounds of the present invention were determined following the proceeding described by Riou, Naudin and Lavelle in Biochemical and Biophysical Research Communications; Vol. 187, No1, 1992, p 164-170.

In assay [2] the test system is A549. Description: activity of the taxoids on A549 (procedure of Riou, Naudin and Lavelle). To be noted: Homo sapiens, A549, read-out: A549. The class given is cell-based. The protocol: as §1
Assay [3] relates to A-375 cells. Description: in vitro potency of huC242-Taxoid conjugate and free taxoid, WST-8 assay, antigen negative cells. The class given is cell-based, human. To be noted: for IC50: human melanoma A-375 cells (antigen negative), 4 days, WST-8. The protocol: (§2) Samples of free taxoid or huC242-Taxoid conjugate were added to a 96-well flat bottomed tissue culture plate and titrated using serial dilutions ranging from 1×10^−12 M to 3×10^−7 M. Human colon tumor cells, COLO 205, or human melanoma cells, A-375, were added to the wells in such a way that there were triplicate samples for each drug concentration for each cell line. The plates were incubated at 37° C. in an atmosphere of 5% CO2 for 4 days.
(§3) At the end of the incubation period, 20 μl of the tetrazolium reagent WST-8 (2-(2-methoxy-nitrophenyl)-3-(4-nitrophenyl)-5-(2,4-disulfophenyl)-2-tetrazolium, monosodium salt]) was added to each well, and the plates were returned to the incubator for 2 hours. The absorbance in each well of the plates was then measured using the Molecular Devices plate reader at 450 nm. Surviving fraction of cells at each concentration of taxoid or conjugate are plotted in FIGS. 2a, b.
On the technique in general: Formazan colour is commonly taken as a measure of viable cells.

The subject of assay [4] is COLO 205 cells. Description: in vitro potency of huC242-Taxoid conjugate and free taxoid, WST-8 assay, antigen positive cells. The class given is cell-based. To be noted: human colon cancer COLO 205 cells (antigen positive), 4 days. The procedure: as §2, §3

As for `COc1ccc(OC)c(C(=O)O[C@H]2[C@@H]3[C@]4(OC(C)=O)CO[C@@H]4C[C@H]4O[C@@H]([C@H](OC(=O)N(C)C)C5=C(C)[C@@H](OC(=O)[C@H](O)[C@H](C=C(C)C)NC(=O)OC(C)(C)C)C[C@]2(O)C5(C)C)[C@@]34C)c1` [IGT-15-014], the IC50 in assay [1] was 0.024 nM; in assay [2] it was 0.03 nM.
In the case of `COc1ccc(OC)c(C(=O)O[C@H]2[C@@H]3[C@]4(OC(C)=O)CO[C@@H]4C[C@H]4O[C@@H]([C@H](OC(=O)NCC(C)(C)SSC)C5=C(C)[C@@H](OC(=O)[C@H](O)[C@@H](NC(=O)OC(C)(C)C)c6ccco6)C[C@]2(O)C5(C)C)[C@@]34C)c1` [IGT-15-075, 7α,9α-epoxy-3′-dephenyl-3′-(2-furyl)-2-debenzoyl-2-(2,5-dimethoxybenzoyl)-10-(N-2,2-dimethyl-2-methyidithio-ethylcarbamoyl)-docetaxel], the IC50 in assay [3] (96 h) and in assay [4] (96 h) was about 0.1 nM throughout.

B1: huC242-taxoid (conjugate, chains of the INN, looked up)
VH: QVQLVQSGAEVKKPGETVKISCKASDYTFTYYGMNWVKQAPGQGLKWMGWIDTTTGEPTYAQKFQGRIAFSLETSASTAYLQIKSLKSEDTATYFCARRGPYNWYFDVWGQGTTVTVSS
VL: DIVMTQSPLSVPVTPGEPVSISCRSSKSLLHSNGNTYLYWFLQRPGQSPQLLIYRMSNLVSGVPDRFSGSGSGTAFTLRISRVEAEDVGVYYCLQHLEYPFTFGPGTKLELK
modifications: taxoid payload conjugate
For B1, the “fold less sensitive, antigen negative cells vs COLO 205” value in assay [3] (A-375 versus COLO 205) is on record as “about 150 fold”. Also, the IC50 in assay [3] was 12 nM; in assay [4] it was 0.08 nM.
